Reference: patent publication US10845367B2, “Modified multispanning membrane polypeptides and methods of use thereof to screen therapeutic agents” (Abilita Bio, Inc., priority 2016, dated 2020)
Values after ≈ are worked out from the molar mass of the structure shown. Like-named read-outs stand apart in the source and are kept apart here.

B1: EMP012: Modified GPR55 receptor (Enabled Membrane Protein), SEQ ID NO: 2, mutated relative to wild-type GPR55; used as cDNA and purified protein (protein, listed as Homo sapiens)
chain: MSQQNTSGNCLFDGMNELMKTLQFAVHIPTFVLGLLLNLLAIHGFSTFLKNRWPDYAATSIYMINLAVFDLLLVLSLPFKIVLSQVQSPFPSLCTLVECLYFVSMYGSVFTICFISMDRFLAIRYPLLVSHLRSPRKIFGICCTIWVLVWTGSIPIYSFHGKVEKYMCFHNMSDDTWSAKVFFPLEVFGFLLPMGIMGFCCSRSIHILLGRRDHTQDWVQQKACIYSIAASLAVFVVSFLPVHLGFFLQFLVRNSFIVECRAKQSISFFLQLSKCFSNVNCCLDVFCYYFVIKEFRMNIRAHRPSRVQLVLQDTTISRGAG

Tests used:
[1] = tested on: E. coli strains (e.g. BL21 or DH10beta); test: Growth of E. coli on LB medium with varying antibiotic concentrations (MIC); assay type: cell-based; details: for Antibiotic concentration to which resistance is conferred: E. coli transformed with mutated GPR55 clones; for MIC: Escherichia coli
[2] = biological target: T1, WT-GPR55 (Homo sapiens, UniProt Q9Y2T6); test: Genetic immunization of mice with protein boost, FACS analysis of sera on transfected cells; assay type: in vivo; details: C57BL6 mice; 50 μg cDNA in NanoTaxi, 2 DNA boosts, 1 boost with 50 μg purified protein in IFA; polyclonal sera by FACS
T1 construct: expressed in transfected cells
T1 sequence (Q9Y2T6 with tags, fused parts or gaps): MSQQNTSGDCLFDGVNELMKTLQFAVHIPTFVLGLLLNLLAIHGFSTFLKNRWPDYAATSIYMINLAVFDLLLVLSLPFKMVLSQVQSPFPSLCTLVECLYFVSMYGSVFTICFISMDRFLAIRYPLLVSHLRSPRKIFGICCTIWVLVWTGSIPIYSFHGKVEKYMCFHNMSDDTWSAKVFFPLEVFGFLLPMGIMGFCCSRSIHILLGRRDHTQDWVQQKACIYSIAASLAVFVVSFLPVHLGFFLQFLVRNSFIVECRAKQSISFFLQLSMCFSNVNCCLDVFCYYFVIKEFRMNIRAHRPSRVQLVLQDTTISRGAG
Protocol: The genetic immunization work was performed using NanoTaxi® at In-Cell-Art (Nantes, France). NanoTaxi® is a DNA delivery system optimized for genetic immunization where the delivered genetic material is formulated with a mixture of different chemical families of lipids and polymers.
The cDNA corresponding to the EMP012 of the GPR55 receptor was cloned into a pCMV-based vector and cell surface expression was confirmed via transient transfection of HEK293T and HeLa cells prior to immunogen administration.
C57BL6 mice were immunized with 50 μg EMP012 cDNA construct formulated into the NanoTaxi® for the primary challenge, followed by 2 boosts of 50 μg using the same NanoTaxi®-based formulation at two-weekly intervals, followed by 1 boost using 50 μg purified EMP012 protein in IFA adjuvant. In some instances, boosting was carried out for the in-vivo affinity maturation by somatic hypermutation of the primary antibody response. The level of immune response was assessed at regular intervals by FACS analysis using Hela cells transfected with an unrelated GPCR (left panel) or WT-GPR55 (right panel) (FIG. 7).

[3] = E. coli containing a plasmid encoding wild-type human GPR55
[4] = E. coli expressing certain constructs containing NTSR1 (rat, aa 43-424), read-out: Apparent MIC

| Molecule | Antibiotic concentration to which resistance is conferred [1] [mg/L] | MIC [1, 3] [µg/mL] | MIC [1, 4] [µg/mL] | MIC ([1]; untransformed cells, LB medium) [µg/mL] | Immune response against WT-GPR55 [2] |
| --- | --- | --- | --- | --- | --- |
| NC[C@H]1O[C@H](O[C@H]2[C@H](O)[C@@H](O[C@H]3O[C@H](CO)[C@@H](O)[C@H](N)[C@H]3O)[C@H](N)C[C@@H]2N)[C@H](O)[C@@H](O)[C@@H]1O [kanamycin] | > 50 | ~25 (≈ 51.6 µM) | > 50 | ~10 (≈ 20.6 µM) |  |
| CC1(C)S[C@@H]2[C@H](NC(=O)C(C(=O)O)c3ccccc3)C(=O)N2[C@H]1C(=O)O (some centres unmarked) [carbenicillin] | > 80 | ~40 (≈ 106 µM) | > 75 |  |  |
| B1 |  |  |  |  | robust and specific immune response |
